The text below walks through data of patent US7700634B2, “(Indol-3-yl) heterocycle derivatives as agonists of the cannabinoid CB1 receptor” (N.V. Organon, priority 2004, dated 2010).

Counter-ions that a name gives are not always drawn. Where only a bound is given, the exact number is not on record here.

For one experiment, the system named is Mice. Nature of the experiment: Tail flick latency in mice. Type of experiment: in vivo. Conditions: Mus musculus, iv, administered intravenously, ED50 calculated at Tmax, significantly increased the tail flick latency, read-out: ED50 (increase of tail flick latency). As to the method: Tail Flick Latency in Mice
Mice were trained to sit still in a tail flick apparatus (Ugo Basile, Italy) whilst tail flick latency was measured. The tail was exposed to a focused beam of radiant heat at a point approximately 2.5 cm from the tip. Tail flick latency was defined as the interval between the appliance of the thermal stimulus and withdrawal of the tail. A 12 second cut-off was employed to prevent tissue damage. Four groups of eight mice were treated with vehicle or one of three doses of the test compound, administered intravenously (vehicle: 10% Tween-80 in saline; injection volume 10 ml/kg). Tail flick latency was measured before administration of the test compound and at regular intervals (typically 20, 40 and 60 minutes) after compound administration. The ED50 was calculated at Tmax.

The next experiment addresses T1, human CB1 receptor (Homo sapiens, UniProt P21554).
T1 construct: expressed in transfected cells; host or cells: Chinese Hamster Ovary (CHO) cells
The experiment in a line: In-vitro efficacy and potency at the human CB1 receptor expressed in CHO cells (luciferase reporter gene assay). In kind it is cell-based. As to conditions: CHO cells expressing human CB1 receptor and luciferase reporter gene; 5 h incubation at 37° C. How it is done:
In-vitro Determination of Efficacy and Potency at the Human CB1 Receptor Expressed in CHO Cells
Chinese Hamster Ovary (CHO) cells expressing the human CB1 receptor and a luciferase reporter gene were suspended in phenol red/serum free DMEM/F-12 nut mix containing penicillin/streptomycin (50 U/50 μg/ml) and fungizone (1 μg/ml) and seeded into 96 well plates at a density of 3×10^4 cells per well (100 μl final volume). Cells were incubated overnight (approx. 18 h at 37° C., 5% CO2/95% air) prior to assay. […] The stock solutions (10 μl) were added directly to the relevant wells. The plates were incubated at 37° C. for 5 h to allow agonist-induced expression of the luciferase enzyme. Under subdued light, LucLite substrate (Packard; reconstituted as per manufacturer's instructions; 100 μl) was added to each well. Plates were covered with Top Seal and then incubated at room temperature for 5 minutes before counting on the Packard TopCount (single photon counting, 0.01 minute count time, 5 minute count delay).
(In general: In a reporter assay the amount or activity of a reporter protein is the signal.)

T1 sequence (P21554 whole entry): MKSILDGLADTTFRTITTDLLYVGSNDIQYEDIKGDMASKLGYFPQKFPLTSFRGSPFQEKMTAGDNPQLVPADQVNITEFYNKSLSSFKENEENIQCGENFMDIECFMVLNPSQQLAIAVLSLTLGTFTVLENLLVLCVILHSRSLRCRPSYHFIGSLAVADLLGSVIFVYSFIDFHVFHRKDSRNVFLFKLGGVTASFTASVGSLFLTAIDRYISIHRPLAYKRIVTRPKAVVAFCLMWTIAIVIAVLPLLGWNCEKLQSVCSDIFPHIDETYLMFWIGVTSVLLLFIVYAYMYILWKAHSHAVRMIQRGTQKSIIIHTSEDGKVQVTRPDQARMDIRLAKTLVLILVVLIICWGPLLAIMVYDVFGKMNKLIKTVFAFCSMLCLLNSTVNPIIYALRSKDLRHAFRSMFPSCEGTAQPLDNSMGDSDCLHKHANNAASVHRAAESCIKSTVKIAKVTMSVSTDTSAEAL

Usually ED50 stands for the dose at which the effect has come halfway, by size or by number of responders. For orientation: EC50 means the concentration giving half of the maximal effect. Take `CCN(CC)Cc1nc(-c2cn3c4c(cccc24)OC[C@H]3C2CCCCC2)ns1` [Example 13, (R)-3-Cyclohexyl-6-{5-[(diethylamino)methyl]-[1,2,4]-thiadiazol-3-yl}-2,3-dihydropyrrolo[1,2,3-de]-1,4-benzoxazine, hydrochloride salt]: in the experiment on Mice, the ED50 is less than 5 µmol/kg. Moreover, it took 7.94 nM to reach a half-maximal effect at human CB1 receptor (EC50).
As for `CCN1Cc2snc(-c3cn(CC4CCCCC4)c4c(OC)cccc34)c2C1` [Example 33, 1-(Cyclohexyl)methyl-3-(5-ethyl-5,6-dihydro-4H-pyrrolo[3,4-d]isothiazol-3-yl)-7-methoxy-1H-indole, hydrochloride salt], the EC50 on human CB1 receptor is 79.4 nM.
The molecule `CCN(CC)Cc1ncc(-c2cn(CC3CCCCC3)c3c(OC)cccc23)o1` [Example 32, 1-(Cyclohexyl)methyl-3-{2-[(diethylamino)methyl]-[1,3]-oxazol-5-yl}-7-methoxy-1H-indole, hydrochloride salt] showed an EC50 at human CB1 receptor of 50.1 nM.
Regarding `Clc1cccc2c(-c3nsc(CN4CCCC4)n3)cn(CC3CCOCC3)c12` [Example 15B, 7-chloro-3-{5-[(Pyrrolidin-1-yl)methyl]-[1,2,4]-thiadiazol-3-yl}1-(tetrahydropyran-4-yl)methyl-1H-indole, hydrochloride salt], the ED50 in the experiment with Mice was less than 5 µmol/kg. On human CB1 receptor, this molecule gave an EC50 of 20 nM.
For `COCCN(Cc1csc(-c2cn(CC3CCCCC3)c3c(Cl)cccc23)n1)C(C)C` [Example 20, 7-Chloro-1-(cyclohexyl)methyl-3-(4-{[N-isopropyl-N-(2-methoxyethyl)amino]methyl}-[1,3]-thiazol-2-yl)-1H-indole, hydrochloride salt], the ED50 in the experiment on Mice was less than 5 µmol/kg. Further, the EC50 at human CB1 receptor is 5.01 nM.
With `CCN(CCO)Cc1nc(-c2cn(CC3CCOCC3)c3c(Cl)cccc23)ns1` [Example 15C, 7-chloro-3-(5-{[N-ethyl-N-(2-hydroxyethyl)amino]methyl}-[1,2,4]-thiadiazol-3-yl)-1-(tetrahydropyran-4-yl)methyl-1H-indole], the ED50 in the experiment with Mice was less than 5 µmol/kg. The same molecule showed an EC50 at human CB1 receptor of 10 nM.
Regarding `Fc1cccc2c(-c3nsc(CN4CCCC4)n3)cn(CC3CCOCC3)c12` [Example 14B, 7-fluoro-3-{5-[(pyrrolidin-1-yl)methyl]-[1,2,4]-thiadiazol-3-yl}1-(tetrahydropyran-4-yl)methyl-1H-indole, hydrochloride salt], the ED50 with Mice is less than 5 µmol/kg. The molecule further gave an EC50 at human CB1 receptor of 50.1 nM.
`CC(C)N(CCO)Cc1csc(-c2cn(CC3CCOCC3)c3c(Cl)cccc23)n1` [Example 23B, 7-Chloro-3-(4-{[N-(2-hydroxyethyl)-N-isopropylamino]methyl}-1,3-thiazol-2-yl)-1-(tetrahydropyran-4-yl)methyl-1H-indole]: the ED50 in the experiment on Mice is less than 5 µmol/kg.
`CC1(C)CCCN1Cc1nc(-c2cn(CC3CCOCC3)c3c(Cl)cccc23)no1` [Example 39, 7-Chloro-3-{5-[(2,2-dimethyl-pyrolidin-1-yl)methyl]-[1,2,4]oxadiazol-3-yl}-1-(tetrahydropyran-4-yl)methyl-1H-indole, hydrochloride salt]: the ED50 in the experiment on Mice was less than 5 µmol/kg. Moreover, the EC50 at human CB1 receptor was 31.6 nM.
On the same counts, the results for `COc1cccc2c(-c3noc([C@H]4CCCN4C)n3)cn(CC3CCCCC3)c12` [Example 2G, (R)-1-(Cyclohexyl)methyl-7-methoxy-3-[5-(1-methylpyrrolidin-2-yl)-[1,2,4]oxadiazol-3-yl]-1H-indole, hydrochloride salt] are less than 5 µmol/kg and 31.6 nM.
`CCN(CCOC)Cc1nc(-c2cn(CC3CCOCC3)c3c(Cl)cccc23)ns1` [Example 15A, 7-chloro-3-(5-{[N-ethyl-N-(2-methoxyethyl)amino]methyl}-[1,2,4]-thiadiazol-3-yl)-1-(tetrahydropyran-4-yl)methyl-1H-indole, hydrochloride salt]: the ED50 with Mice is less than 5 µmol/kg. On human CB1 receptor, this molecule showed an EC50 of 10 nM.
Take `CCN(CCO)Cc1csc(-c2cn(CC3CCOCC3)c3c(Cl)cccc23)n1` [Example 23C, 7-Chloro-3-(4-{[N-ethyl-N-(2-hydroxyethyl)amino]methyl}-[1,3]-thiazol-2-yl)-1-(tetrahydropyran-4-yl)methyl-1H-indole]: the ED50 with Mice was less than 5 µmol/kg.
On to `COc1cccc2c(-c3nnc(CN4CCCC4)s3)cn(CC3CCCCC3)c12` [Example 38, 1-(Cyclohexyl)methyl-7-methoxy-3-{5-[(pyrrolidin-1-yl)methyl]-[1,3,4]-thiadiazol-2-yl}-1H-indole, hydrochloride salt], for which a half-maximal response at human CB1 receptor (EC50) required 79.4 nM.
